Test results reported in patent US5208145A, “Assay for the presence, in cultured cells, of functional ligand-gated channels, and substances which enhance intracellular lithium accumulation by cultured cells via such channels” (The Salk Institute for Biological Studies, priority 1991, dated 1993).

Test system: PC12 cells
Settings: sodium formulated buffer plus 10 μM nicotine, 3H-thymidine incorporation, FIG. 1
Protocol: To subculture, these cells were dislodged from the culture dish by pipetting medium across the culture surface, disassociated by vigorous repeat pipetting, and then distributed to new culture dishes containing fresh media. All cells were maintained at 37° C. in a humidified atmosphere supplemented to 5 percent with CO2.
PC12 cells were distributed to 96 well Costar culture dishes (10^4 cells/well) and the cells were allowed to recover for 24 to 36 hours prior to use. Cells were never allowed to reach confluency. To conduct a lithium-flux experiment, the culture medium was removed and gently replaced with flux-buffer composed of 1.8 mM CaCl2, 25 mM glucose, 10 mM HEPES (pH 7.4), and 115 mM in either sodium chloride or lithium chloride. Each buffer was filter sterilized and supplemented with agonist, antagonist, or both, as described for the experiment being conducted. […] For PC12 cells, culture was then continued as usual for 6 hours before quantitating ^3 H-thymidine incorporation. […]
To determine the incorporation of ^3 H-thymidine into fluxed cells, dishes were frozen at -70°, thawed, and the DNA from each well was collected on glass filters using a Cambridge PhD cell harvester. […] Glass filters were dried, resuspended in Ecolume (ICN) scintillation cocktail, and counted in an LKB Wallace 2010 scintillation counter at 34 percent efficiency.

CN1CCCC1c1cccnc1 (stereo not shown) [nicotine]
effect of the presence of nicotine on cell cycle time of PC12 cells: does not alter the cell cycle time of PC12 cells
